The values that follow come from publication PMC7250896, “Inhibition of mitochondrial complex I by the novel compound FSL0260 enhances high salinity-stress tolerance in Arabidopsis thaliana” (Scientific Reports, 2020).

The test system of this assay is T1, mitochondrial complex I.
T1 construct: native multi-subunit complex in sonicated mitochondria isolated from potato tuber; with Gamma-CA (complex I subunit detected in the pull-down)
As to the kind of experiment: deamino-NADH oxidation ([…] nm) in sonicated mitochondria; OCR; pull-down with FSL0260-fixed agarose beads. It counts as biochemical, Solanum tuberosum.

Structures are written as SMILES. pIC50: −log10 of the molar value.

Broadly, the pIC50 is −log10 of the IC50, conventionally taken in molar units. A low value points to a high IC50. As for `Cc1ccc(S(=O)(=O)OCC2Oc3ccccc3C=C2C[n+]2ccccc2)cc1` (stereo not shown) [FSL0260], the pIC50 is 4.35.
